Assay results as given in article PMC7180948, “New Insights into 4-Anilinoquinazolines as Inhibitors of Cardiac Troponin I–Interacting Kinase (TNNi3K)” (Molecules, 2020).

How the values were obtained:
Assay in all cases: biochemical
Set-up in all cases: KINOMEscan competition binding panel (Eurofins DiscoverX), single concentration, percent inhibition
Details in all cases: read-out: 15 at 1 µM % inhibition
[1] = biological target: T1, ABL1(F317L)-nonphosphorylated (Homo sapiens, UniProt P00519, F317L)
T1 construct: nonphosphorylated
How it was run: (§1)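 Kinome-wide profiling (KINOMEscan, >400 human kinases) was run at 1 µM compound.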

[2] = biological target: T2, ABL1(H396P)-phosphorylated (Homo sapiens, UniProt P00519, H396P)
T2 construct: phosphorylated
How it was run: as §1

AURKB = AURKB (Homo sapiens, UniProt Q96GD4)
How it was run: as §1

BLK = BLK (Homo sapiens, UniProt P51451)
How it was run: as §1

CASK = CASK (Homo sapiens, UniProt O14936)
How it was run: as §1

CDC2L2 = biological target: T3, CDC2L2 (Homo sapiens, UniProt Q9UQ88)
T3 construct: gene CDK11A
T3 sequence (Q9UQ88 whole entry): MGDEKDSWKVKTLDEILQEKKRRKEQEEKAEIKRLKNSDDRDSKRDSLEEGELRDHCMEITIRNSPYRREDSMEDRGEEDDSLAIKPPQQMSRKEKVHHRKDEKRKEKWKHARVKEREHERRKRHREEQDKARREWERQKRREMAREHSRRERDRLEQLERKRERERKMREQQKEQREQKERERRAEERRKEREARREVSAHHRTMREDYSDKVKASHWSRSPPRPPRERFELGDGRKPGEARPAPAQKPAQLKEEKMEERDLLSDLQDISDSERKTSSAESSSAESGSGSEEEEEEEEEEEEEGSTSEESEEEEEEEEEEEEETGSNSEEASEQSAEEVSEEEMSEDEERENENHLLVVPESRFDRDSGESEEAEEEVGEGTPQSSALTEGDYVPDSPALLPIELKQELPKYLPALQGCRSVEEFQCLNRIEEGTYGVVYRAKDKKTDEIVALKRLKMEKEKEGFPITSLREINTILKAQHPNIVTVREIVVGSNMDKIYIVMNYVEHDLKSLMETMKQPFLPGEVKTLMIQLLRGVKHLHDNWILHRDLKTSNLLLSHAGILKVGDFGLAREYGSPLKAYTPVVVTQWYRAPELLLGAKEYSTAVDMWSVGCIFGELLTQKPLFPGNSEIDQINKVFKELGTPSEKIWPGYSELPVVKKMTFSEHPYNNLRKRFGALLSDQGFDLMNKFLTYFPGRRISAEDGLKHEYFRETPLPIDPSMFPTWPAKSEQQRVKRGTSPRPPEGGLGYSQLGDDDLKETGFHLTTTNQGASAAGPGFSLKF
How it was run: as §1

CDK4-cyclinD1 = biological target: T4, CDK4-cyclinD1 (Homo sapiens, UniProt P11802)
T4 construct: cyclinD1
How it was run: as §1

ERK8 = biological target: T5, ERK8 (Homo sapiens, UniProt Q8TD08)
T5 construct: gene MAPK15
How it was run: as §1

FGFR2 = FGFR2 (Homo sapiens, UniProt P21802)
How it was run: as §1

FLT3-autoinhibited = FLT3-autoinhibited (Homo sapiens, UniProt P36888)
Sequence of FLT3-autoinhibited (P36888 whole entry): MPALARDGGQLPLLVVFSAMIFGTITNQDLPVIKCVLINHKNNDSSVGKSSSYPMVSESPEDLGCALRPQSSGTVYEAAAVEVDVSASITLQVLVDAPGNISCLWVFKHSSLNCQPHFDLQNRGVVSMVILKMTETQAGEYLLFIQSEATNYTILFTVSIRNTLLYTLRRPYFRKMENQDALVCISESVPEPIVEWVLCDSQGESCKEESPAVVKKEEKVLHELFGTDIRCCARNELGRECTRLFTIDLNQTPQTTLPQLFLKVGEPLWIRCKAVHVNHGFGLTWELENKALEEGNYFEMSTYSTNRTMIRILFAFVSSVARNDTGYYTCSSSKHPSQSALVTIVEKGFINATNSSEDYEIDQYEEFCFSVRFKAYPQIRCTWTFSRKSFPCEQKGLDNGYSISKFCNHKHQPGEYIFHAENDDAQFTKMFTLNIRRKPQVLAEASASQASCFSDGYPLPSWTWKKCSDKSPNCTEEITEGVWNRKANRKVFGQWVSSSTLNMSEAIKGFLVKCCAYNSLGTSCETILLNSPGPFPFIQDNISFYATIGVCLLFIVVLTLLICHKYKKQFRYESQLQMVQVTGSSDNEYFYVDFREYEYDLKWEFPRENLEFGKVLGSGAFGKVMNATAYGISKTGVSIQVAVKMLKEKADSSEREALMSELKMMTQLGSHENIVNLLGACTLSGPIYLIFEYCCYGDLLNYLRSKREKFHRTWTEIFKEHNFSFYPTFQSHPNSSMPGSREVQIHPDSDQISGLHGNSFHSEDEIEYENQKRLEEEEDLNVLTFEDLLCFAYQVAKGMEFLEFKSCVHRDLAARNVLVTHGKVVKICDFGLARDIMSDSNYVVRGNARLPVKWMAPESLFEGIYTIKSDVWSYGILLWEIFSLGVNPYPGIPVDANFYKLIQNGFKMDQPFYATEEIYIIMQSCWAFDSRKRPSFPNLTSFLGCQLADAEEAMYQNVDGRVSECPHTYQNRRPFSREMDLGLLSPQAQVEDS
How it was run: as §1

FYN = FYN (Homo sapiens, UniProt P06241)
How it was run: as §1

IRAK3 = IRAK3 (Homo sapiens, UniProt Q9Y616)
How it was run: as §1

LIMK2 = LIMK2 (Homo sapiens, UniProt P53671)
How it was run: as §1

MLK1 = biological target: T6, MLK1 (Homo sapiens, UniProt P80192)
T6 construct: gene MAP3K9
How it was run: as §1

NEK6 = NEK6 (Homo sapiens, UniProt Q9HC98)
Sequence of NEK6 (Q9HC98 whole entry): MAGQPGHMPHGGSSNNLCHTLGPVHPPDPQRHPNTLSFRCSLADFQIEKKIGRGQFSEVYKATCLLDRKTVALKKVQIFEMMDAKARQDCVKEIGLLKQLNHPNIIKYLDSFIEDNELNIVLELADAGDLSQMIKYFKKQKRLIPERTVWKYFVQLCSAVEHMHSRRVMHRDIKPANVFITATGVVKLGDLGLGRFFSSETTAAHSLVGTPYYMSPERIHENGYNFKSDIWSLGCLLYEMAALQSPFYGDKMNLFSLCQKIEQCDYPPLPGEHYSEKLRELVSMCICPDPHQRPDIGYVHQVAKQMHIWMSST
How it was run: as §1

PIP5K1A = PIP5K1A (Homo sapiens, UniProt Q99755)
Sequence of PIP5K1A (Q99755 whole entry): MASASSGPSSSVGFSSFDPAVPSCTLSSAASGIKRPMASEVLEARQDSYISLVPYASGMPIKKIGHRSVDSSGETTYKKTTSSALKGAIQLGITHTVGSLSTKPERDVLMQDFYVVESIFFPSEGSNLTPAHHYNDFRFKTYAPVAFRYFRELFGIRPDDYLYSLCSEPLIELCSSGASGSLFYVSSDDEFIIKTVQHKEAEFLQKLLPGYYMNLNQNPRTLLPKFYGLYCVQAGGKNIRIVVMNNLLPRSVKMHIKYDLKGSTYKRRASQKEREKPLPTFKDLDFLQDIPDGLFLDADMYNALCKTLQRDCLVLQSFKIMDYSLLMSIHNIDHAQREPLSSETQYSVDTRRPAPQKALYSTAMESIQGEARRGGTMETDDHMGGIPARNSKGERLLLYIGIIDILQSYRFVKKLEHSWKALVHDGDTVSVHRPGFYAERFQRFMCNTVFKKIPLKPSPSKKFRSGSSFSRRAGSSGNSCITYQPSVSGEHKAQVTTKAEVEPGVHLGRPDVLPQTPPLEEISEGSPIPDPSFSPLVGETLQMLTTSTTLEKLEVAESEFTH
How it was run: as §1

SIK2 = SIK2 (Homo sapiens, UniProt Q9H0K1)
How it was run: as §1

SNRK = SNRK (Homo sapiens, UniProt Q9NRH2)
How it was run: as §1

TAOK1 = TAOK1 (Homo sapiens, UniProt Q7L7X3)
Sequence of TAOK1 (Q7L7X3 whole entry): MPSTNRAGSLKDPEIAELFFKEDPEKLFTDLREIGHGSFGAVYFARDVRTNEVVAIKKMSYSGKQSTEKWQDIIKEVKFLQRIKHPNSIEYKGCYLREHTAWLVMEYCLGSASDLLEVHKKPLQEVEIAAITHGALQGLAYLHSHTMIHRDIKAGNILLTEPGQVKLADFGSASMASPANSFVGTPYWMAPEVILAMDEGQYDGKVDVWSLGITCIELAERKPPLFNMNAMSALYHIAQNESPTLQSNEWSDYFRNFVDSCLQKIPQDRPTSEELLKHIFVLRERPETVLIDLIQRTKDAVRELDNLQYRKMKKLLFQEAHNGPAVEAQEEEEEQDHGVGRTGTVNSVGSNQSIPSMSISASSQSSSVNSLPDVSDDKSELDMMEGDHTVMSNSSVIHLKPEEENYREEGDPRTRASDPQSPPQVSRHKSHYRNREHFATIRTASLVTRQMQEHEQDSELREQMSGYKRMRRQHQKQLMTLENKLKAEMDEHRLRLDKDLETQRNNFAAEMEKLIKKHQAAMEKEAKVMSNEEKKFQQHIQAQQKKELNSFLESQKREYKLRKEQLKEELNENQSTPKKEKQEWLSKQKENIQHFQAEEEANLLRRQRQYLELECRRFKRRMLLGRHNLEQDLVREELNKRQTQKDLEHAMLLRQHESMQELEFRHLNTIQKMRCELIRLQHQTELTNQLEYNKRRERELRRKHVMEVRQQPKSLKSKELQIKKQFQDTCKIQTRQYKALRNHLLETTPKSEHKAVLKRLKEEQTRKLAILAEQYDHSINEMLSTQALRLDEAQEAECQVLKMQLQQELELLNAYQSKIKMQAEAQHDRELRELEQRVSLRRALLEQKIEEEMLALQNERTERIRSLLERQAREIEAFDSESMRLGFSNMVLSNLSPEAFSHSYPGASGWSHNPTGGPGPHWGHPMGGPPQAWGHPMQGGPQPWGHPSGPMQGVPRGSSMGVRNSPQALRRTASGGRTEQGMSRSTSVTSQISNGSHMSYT
How it was run: as §1

TIE1 = TIE1 (Homo sapiens, UniProt P35590)
How it was run: as §1

TNNI3K = TNNI3K (Homo sapiens, UniProt Q59H18)
Sequence of TNNI3K (Q59H18 whole entry): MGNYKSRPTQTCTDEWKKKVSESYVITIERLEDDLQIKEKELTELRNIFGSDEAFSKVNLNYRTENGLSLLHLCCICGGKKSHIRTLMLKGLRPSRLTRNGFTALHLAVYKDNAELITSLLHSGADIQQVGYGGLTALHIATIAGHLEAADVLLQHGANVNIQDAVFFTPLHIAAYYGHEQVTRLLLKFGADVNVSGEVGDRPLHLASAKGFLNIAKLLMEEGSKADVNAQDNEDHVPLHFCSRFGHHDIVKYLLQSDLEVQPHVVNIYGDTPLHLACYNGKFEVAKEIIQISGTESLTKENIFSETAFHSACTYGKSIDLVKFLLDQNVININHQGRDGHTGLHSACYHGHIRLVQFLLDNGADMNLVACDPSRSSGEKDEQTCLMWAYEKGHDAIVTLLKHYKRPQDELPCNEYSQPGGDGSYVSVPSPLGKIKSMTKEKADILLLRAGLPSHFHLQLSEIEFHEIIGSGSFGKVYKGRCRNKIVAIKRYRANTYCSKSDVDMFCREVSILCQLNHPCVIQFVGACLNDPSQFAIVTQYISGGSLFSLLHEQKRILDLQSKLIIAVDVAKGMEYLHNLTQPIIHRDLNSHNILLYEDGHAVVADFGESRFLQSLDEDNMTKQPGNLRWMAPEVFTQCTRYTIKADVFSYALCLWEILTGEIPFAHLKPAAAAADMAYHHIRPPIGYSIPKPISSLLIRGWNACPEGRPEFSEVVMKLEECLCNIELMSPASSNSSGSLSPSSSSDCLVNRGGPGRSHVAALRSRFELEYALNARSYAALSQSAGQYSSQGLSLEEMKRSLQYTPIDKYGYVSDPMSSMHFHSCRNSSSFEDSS
How it was run: as §1

WEE2 = WEE2 (Homo sapiens, UniProt P0C1S8)
Sequence of WEE2 (P0C1S8 whole entry): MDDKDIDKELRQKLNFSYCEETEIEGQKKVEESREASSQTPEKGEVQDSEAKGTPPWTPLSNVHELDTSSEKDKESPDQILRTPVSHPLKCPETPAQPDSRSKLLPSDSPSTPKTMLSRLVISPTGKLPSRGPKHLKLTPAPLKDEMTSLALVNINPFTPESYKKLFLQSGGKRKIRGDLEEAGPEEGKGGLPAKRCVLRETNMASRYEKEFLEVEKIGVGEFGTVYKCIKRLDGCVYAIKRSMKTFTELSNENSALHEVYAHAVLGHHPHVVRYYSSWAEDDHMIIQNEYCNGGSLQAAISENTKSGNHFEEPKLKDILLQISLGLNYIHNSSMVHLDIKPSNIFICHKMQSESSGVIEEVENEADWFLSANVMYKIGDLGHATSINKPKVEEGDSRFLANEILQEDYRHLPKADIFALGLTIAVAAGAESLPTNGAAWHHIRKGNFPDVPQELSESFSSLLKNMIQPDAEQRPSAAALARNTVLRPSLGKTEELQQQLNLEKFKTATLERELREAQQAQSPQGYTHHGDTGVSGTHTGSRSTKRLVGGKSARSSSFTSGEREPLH
How it was run: as §1

WNK1 = WNK1 (Homo sapiens, UniProt Q9H4A3)
How it was run: as §1

WNK4 = WNK4 (Homo sapiens, UniProt Q96J92)
How it was run: as §1

inhibition at 1 µM [1]: 33% | inhibition at 1 µM [2]: 0% | inhibition at 1 µM (AURKB): 3% | inhibition at 1 µM (BLK): 0% | inhibition at 1 µM (CASK): 26% | inhibition at 1 µM (CDC2L2): 0% | inhibition at 1 µM (CDK4-cyclinD1): 36% | inhibition at 1 µM (FGFR2): 0% | inhibition at 1 µM (FLT3-autoinhibited): 0% | inhibition at 1 µM (FYN): 0% | inhibition at 1 µM (IRAK3): 3% | inhibition at 1 µM (LIMK2): 9% | inhibition at 1 µM (MLK1): 0% | inhibition at 1 µM (NEK6): 0% | inhibition at 1 µM (PIP5K1A): 22% | inhibition at 1 µM (SIK2): 4% | inhibition at 1 µM (SNRK): 13% | inhibition at 1 µM (TAOK1): 15% | inhibition at 1 µM (TIE1): 11% | inhibition at 1 µM (TNNI3K): 7% | inhibition at 1 µM (WEE2): 0% | inhibition at 1 µM (WNK1): 22% | inhibition at 1 µM (WNK4): 0%
SMILES: CNS(=O)(=O)c1ccc(N(C)C)c(Nc2nc(C)nc3cc(OC)c(OC)cc23)c1 [compound 15, 3-((6,7-dimethoxy-2-methylquinazolin-4-yl)amino)-4-(dimethylamino)-N-methylbenzenesulfonamide]
inhibition at 1 µM (ERK8): 0%
